Data as given in paper PMC7822819, “Discovery of a new class of integrin antibodies for fibrosis” (Scientific Reports, 2021).

Columns and labels:
[1] = test system: diabetic nephropathy model; parameters: method as in PMID 28971604; details: cited from earlier work
[2] = parameters: method as in PMID 15687321; details: humans; cited from earlier work
[3] = test system: IPF patient lung fibroblasts; assay: TGFβ-induced αSMA high-content imaging; format: cell-based, human; details: even at 10 μM
Protocol: Normal human lung fibroblasts (Lonza) and Primary Human IPF Lung Parenchymal Fibroblasts (Donor2) (BioIVT, #PCR-70-0214) were incubated at 37 °C and 5% CO2. To induce fibrotic response in primary cells, a final concentration of 5 ng/ml of recombinant human TGFβ1 (BioLegend, #580702) was added to the culture media and treated for 24 ~ 48 h. Anti-TGFβ neutralizing antibody (1D11) and the isotype control mouse IgG1 were from BioXcell. SB-525334 and bleomycin were from Sigma. MK-0429 was synthesized by Merck & Co., Inc., Kenilworth, NJ, USA. CHOK1-integrin stable lines were cultured in DMEM/F12, Glutamax (Gibco #10565018), 10% FBS (Gibco 310091148), 1 × Pen/Strep (Gibco 315140-148), and 6 ug/mL Puromycin (Gibco #A1113803).
Primary cells (passage 3–5) were grown on Cell carrier Ultra, col1 coated 96-well plates (Perkin Elmer, #6055700) at a density of 25,000 cells/well. Once the cells adhere, they were starved in serum free media for 24 h followed by addition of treatments i.e. 5 ng/mL TGFβ (Biolegend #580702) ± inhibitors. Cells were pre-treated with inhibitors for 30 min prior to the addition of TGFβ stimulation. 48hours post treatment, the cells were fixed in 4% methanol free paraformaldehyde (ThermoFisher Scientific #28908) for 20 min at room temperature and incubated with anti-alpha smooth muscle Actin antibody (Abcam #ab7817) at 1:4000 overnight at 4 °C. […]

CHOK1-α5KO-mαvβ1 cells = molecular target: T1, CHOK1-α5KO-mαvβ1 cells (Mus musculus, UniProt P09055+P43406); assay: Cell adhesion assay (Epic) on fibronectin; format: cell-based; details: in words
T1 construct: expressed in transfected cells; host or cells: CHOK1 with endogenous hamster α5 deleted by CRISPR
Protocol: For plate preparation, Epic 384-well assay plates (Corning #5040) were washed with OptiMEM (Gibco #31985-070) and coated with murine fibronectin (Abcam #ab92784) at a concentration of 0.1 μg/well for CHO-a5KO-mαvβ1 cells; murine vitronectin (Abcam #ab92727) at 0.075 μg/well for CHO-mαvβ3 cells; or murine vitronectin at 0.125 μg/well for CHO-mαvβ5 (all at a volume of 25 μl/well in OptiMEM), for 1 h. Coating solution was then removed by flicking and plates were washed with OptiMEM and blocked with 25 μl/well of assay buffer [1% Ovalbumin (Sigma #A5503-10G) in OptiMEM containing 1X Pen-Strep (Gibco #15140-148)]. A 5-min baseline reading was taken on a Corning Epic Plate Reader (Model: Epic BT-157900) before removing the assay buffer and adding cells pre-incubated with inhibitors. The Epic plate reader detects cellular mass redistribution (adhesion) on the plate surface as a picometer wavelength shift over time. […] Cells were incubated with the inhibitors for 1 h at RT with gentle rocking, after which 50 μL per well was transferred to the Epic assay plate, and a time course of cell adhesion was monitored for an additional 3 h.

human αvβ8 = human αvβ8 (Homo sapiens, UniProt P06756+P26012); assay: Latent TGFβ activation assay (TMLC / CHOK1-integrin co-culture, PAI-1 luciferase); format: cell-based; parameters: expressed in transfected cells; details: in words
Protocol: (§1) Transfected mink lung epithelial cell (TMLC) cell line containing the TGFβ responsive PAI-1 promoter driving luciferase expression[29] and the CHO-K1 human and mouse αvβx integrin cell lines were grown under optimized growth conditions to 90% confluency. TMLC cells were trypsinized and plated at 25,000 cells/well in 50 μL in Costar clear bottom white walled plates. In a separate plate, 25 μL of serially diluted antibodies at 4X concentration were added to wells containing 25 μL of either 25,000 cells of human or mouse αvβx cells. After a brief mixing, the 50 μL mixture was transferred to the TMLC cell plates for a total volume of 100 μL and incubated at 37 °C for 16 h. 100 μL of ONE-Glo kit (#PRE6120) was added to each well and read after 3–5 min on the Envision plate reader.

human αvβ6 = human αvβ6 (Homo sapiens, UniProt P06756+P18564); assay: as above; format: cell-based; parameters: expressed in transfected cells; details: in words
Protocol: as §1

human αvβ1 = human αvβ1 (Homo sapiens, UniProt P05556+P06756); assay: as above; format: cell-based; parameters: expressed in transfected cells; details: in words
Protocol: as §1

mouse αvβ1 = mouse αvβ1 (Mus musculus, UniProt P09055+P43406); assay: as above; format: cell-based; parameters: expressed in transfected cells; details: in words
Protocol: as §1

Sequence of human αvβ1 (P06756 31-1048): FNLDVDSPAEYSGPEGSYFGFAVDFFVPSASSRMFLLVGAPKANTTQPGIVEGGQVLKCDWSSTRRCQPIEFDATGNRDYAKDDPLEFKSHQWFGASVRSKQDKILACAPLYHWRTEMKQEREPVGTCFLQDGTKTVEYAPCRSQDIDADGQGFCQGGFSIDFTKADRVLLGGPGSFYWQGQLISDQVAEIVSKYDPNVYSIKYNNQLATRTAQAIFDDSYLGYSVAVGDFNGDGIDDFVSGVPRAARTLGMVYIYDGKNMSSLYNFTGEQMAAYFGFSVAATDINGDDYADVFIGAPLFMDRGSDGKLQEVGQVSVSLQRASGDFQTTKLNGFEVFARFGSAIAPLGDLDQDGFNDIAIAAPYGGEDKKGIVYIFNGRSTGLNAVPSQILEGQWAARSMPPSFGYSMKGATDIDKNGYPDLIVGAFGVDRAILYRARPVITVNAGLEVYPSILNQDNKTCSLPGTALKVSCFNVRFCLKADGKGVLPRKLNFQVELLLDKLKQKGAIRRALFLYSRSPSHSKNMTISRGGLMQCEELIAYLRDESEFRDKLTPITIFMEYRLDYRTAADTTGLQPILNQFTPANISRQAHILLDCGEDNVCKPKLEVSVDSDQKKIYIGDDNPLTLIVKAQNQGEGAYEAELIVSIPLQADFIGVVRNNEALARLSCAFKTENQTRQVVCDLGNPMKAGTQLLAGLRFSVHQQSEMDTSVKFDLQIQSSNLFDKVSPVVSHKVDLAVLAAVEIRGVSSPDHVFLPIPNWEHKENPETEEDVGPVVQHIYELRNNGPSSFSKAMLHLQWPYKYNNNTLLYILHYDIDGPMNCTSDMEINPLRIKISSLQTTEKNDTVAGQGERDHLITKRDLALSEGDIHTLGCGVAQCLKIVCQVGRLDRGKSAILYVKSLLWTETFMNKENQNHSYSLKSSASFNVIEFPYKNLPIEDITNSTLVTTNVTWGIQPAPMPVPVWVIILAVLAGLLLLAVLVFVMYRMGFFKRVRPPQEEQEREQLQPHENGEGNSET
Sequence of human αvβ1 (P05556 21-798): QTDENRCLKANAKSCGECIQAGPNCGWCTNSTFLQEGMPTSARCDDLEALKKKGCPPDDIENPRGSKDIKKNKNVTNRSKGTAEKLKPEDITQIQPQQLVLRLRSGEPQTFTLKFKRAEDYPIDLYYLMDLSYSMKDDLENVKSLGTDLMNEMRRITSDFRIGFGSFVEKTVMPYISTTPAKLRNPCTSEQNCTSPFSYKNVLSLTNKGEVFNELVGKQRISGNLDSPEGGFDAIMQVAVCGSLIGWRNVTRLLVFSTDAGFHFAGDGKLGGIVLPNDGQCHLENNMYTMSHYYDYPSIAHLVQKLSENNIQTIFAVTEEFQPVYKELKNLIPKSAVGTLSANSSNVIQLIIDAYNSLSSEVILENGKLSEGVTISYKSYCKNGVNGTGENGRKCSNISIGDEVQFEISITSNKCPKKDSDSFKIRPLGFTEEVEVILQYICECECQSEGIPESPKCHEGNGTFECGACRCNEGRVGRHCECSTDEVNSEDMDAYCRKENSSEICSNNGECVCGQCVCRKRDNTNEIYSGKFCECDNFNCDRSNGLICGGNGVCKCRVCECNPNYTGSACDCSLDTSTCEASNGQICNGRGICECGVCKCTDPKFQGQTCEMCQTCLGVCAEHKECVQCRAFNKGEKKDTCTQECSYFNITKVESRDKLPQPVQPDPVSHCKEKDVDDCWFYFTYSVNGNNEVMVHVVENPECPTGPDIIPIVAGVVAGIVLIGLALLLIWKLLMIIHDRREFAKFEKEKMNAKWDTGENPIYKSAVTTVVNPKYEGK
Sequence of human αvβ6 (P06756 31-1048): as the sequence (P06756 31-1048) above
Sequence of human αvβ6 (P18564 22-788): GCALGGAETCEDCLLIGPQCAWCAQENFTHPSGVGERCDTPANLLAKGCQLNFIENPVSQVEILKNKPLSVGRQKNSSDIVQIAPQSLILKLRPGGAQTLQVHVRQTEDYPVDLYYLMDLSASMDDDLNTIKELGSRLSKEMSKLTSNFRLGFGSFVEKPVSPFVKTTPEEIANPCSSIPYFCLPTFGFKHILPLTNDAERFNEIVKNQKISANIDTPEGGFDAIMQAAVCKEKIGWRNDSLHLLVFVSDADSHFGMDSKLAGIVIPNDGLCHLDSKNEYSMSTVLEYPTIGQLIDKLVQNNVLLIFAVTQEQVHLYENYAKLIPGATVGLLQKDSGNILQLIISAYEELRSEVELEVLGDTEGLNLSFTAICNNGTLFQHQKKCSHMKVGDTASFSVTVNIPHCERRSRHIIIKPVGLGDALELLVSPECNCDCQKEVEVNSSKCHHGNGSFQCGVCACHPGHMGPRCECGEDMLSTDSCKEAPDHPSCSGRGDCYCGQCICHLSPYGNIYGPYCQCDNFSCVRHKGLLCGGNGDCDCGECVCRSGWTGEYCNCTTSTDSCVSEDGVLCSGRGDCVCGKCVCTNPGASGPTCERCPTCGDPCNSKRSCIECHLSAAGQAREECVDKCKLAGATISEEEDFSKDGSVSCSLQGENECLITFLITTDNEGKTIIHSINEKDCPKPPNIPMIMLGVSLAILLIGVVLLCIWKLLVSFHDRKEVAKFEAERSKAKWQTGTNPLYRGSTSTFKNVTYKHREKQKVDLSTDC
Sequence of human αvβ8 (P06756 31-1048): as the sequence (P06756 31-1048) above
Sequence of human αvβ8 (P26012 43-769): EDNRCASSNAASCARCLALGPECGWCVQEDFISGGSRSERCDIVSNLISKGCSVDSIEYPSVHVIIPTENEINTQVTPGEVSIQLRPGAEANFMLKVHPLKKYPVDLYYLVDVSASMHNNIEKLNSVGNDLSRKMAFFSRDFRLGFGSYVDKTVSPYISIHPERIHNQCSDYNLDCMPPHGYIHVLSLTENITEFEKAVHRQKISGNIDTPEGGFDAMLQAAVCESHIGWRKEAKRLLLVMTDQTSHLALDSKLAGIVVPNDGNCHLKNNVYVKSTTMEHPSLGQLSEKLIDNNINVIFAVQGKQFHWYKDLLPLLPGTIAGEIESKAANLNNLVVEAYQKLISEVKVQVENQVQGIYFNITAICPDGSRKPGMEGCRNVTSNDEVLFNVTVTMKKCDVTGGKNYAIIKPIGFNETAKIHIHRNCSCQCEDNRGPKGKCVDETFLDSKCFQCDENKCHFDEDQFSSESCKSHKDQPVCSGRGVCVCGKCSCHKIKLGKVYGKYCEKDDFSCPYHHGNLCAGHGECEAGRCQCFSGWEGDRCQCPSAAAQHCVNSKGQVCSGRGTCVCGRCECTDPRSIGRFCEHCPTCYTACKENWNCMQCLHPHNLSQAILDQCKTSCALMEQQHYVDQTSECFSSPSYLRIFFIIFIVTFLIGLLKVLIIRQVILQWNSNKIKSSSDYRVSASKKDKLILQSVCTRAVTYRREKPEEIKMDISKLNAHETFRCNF

Effect on cell adhesion, mouse αvβ1-expressing CHOK1-α5KO cells (CHOK1-α5KO-mαvβ1 cells): potently reduced
Inhibition of latent TGFβ activation, human αvβ8 co-culture (human αvβ8): strong inhibitory effect
Inhibition of latent TGFβ activation, human αvβ6 co-culture (human αvβ6): strong inhibitory effect
Inhibition of latent TGFβ activation, human αvβ1 co-culture (human αvβ1): strong inhibitory effect
Inhibition of latent TGFβ activation, mouse αvβ1 co-culture (mouse αvβ1): strong inhibitory effect
SMILES: COc1ccc(C(CC(=O)O)N2CCN(CCCc3ccc4c(n3)NCCC4)C2=O)cn1 (stereo not drawn) [MK-0429]
Proteinuria [1]: reduces
Renal fibrosis [1]: reduces
Oral bioavailability [2]: good
Inhibition of αSMA induction [3]: minimal activity
